In patent US20090233917A1, “Stroke recovery” (priority 2006, published 2009):
“Also recorded” adds a separate entry of the source.

What was measured:
[1] = system: permanent middle cerebral artery occlusion (MCAO) in rats; experiment: Functional recovery following permanent MCAO in rats (Example 1); assay type: in vivo, Sprague Dawley Rats
Source text: The purpose of this study was to evaluate the efficacy of arimoclomol and iroxanadine in enhancing neurological recovery in a model of permanent middle cerebral artery occlusion (MCAO) in rats. The permanent MCAO is a well accepted and considered to be a standard animal model for studying clinical aspects of stroke. (Stroke. 1999; 30:2752-2758.)
Forty male Sprague Dawley Rats, each weighing 300-400 g, which had been housed and handled for behavioral assessment for seven (7) days prior to surgery for acclimation purposes, were operated under anesthesia to create focal cerebral infarcts by permanent occlusion of the proximal right middle cerebral artery (MCA) according to modified Tamura model. Briefly, the rats were anesthetized with 2-3% halothane in the mixture of N2O:O2 (2:1), and were maintained with 1˜1.5% halothane in the mixture of N2O:O2 (2:1). The temporalis muscle was bisected and reflected through an incision made midway between the eye and the eardrum canal. The proximal MCA was exposed through a subtemporal craniectomy without removing the zygomatic arch and without transecting the facial nerve. […] Body temperature was maintained at 37.5° C.±0.5° C. throughout the entire procedure. Cefazolin (40 mg/kg; Baxter, Lot 06014.1, Exp. January 2009) was given i.p. one day before MCAO and just after MCAO to prevent infections.
The rats were randomly divided into 4 groups of 10 animals each. One group was given arimoclomol, p.o., starting at one hour after the occlusion at 200 mg/kg/d once daily for 3 days, then 50 mg/kg/d once daily for a total of 29 days. The second group was given iroxanadine using the same dosing regimen as for arimoclomol. The third group is a positive control group and is given intracistemally 1 μg (at 20 μg/ml, also containing 100 μg/ml of bovine serum albumin) beta-fibroblast growth factor (bFGF) one hour and one day (i.e. two administrations) after the occlusion. The fourth group is a negative control with administration of the vehicle only.
Animals were evaluated preoperation (day −1), then every 7 days after the operation (7, 14, 21, and 28 days) by forelimb and hindlimb placing tests and body swing test, which are widely accepted as standard tests indicative of functional recovery after a stroke model.
For the forelimb placing test, the examiner held the rat close to a tabletop and scored the rat's ability to place the forelimb on the tabletop in response to whisker, visual, tactile, or proprioceptive stimulation. Similarly, for the hindlimb placing test, the examiner assessed the rat's ability to place the hindlimb on the tabletop in response to tactile and proprioceptive stimulation. Separate sub-scores were obtained for each mode of sensory input (halfpoint designations possible), and added to give total scores (for the forelimb placing test: 0=normal, 12=maximally impaired; for the hindlimb placing test: 0=normal; 6=maximally impaired).
For the body swing test, the rat was held approximately one inch from the base of its tail. It was then elevated to an inch above a surface of a table. The rat was held in the vertical axis, defined as no more than […] to either the left or the right side. A swing was recorded whenever the rat moved its head out of the vertical axis to either side. The rat must return to the vertical position for the next swing to be counted. Thirty (30) total swings were counted. A normal rat typically has an equal number of swings to either side. Following focal ischemia, the rat tends to swing to the contralateral (left) side.
The behavior was evaluated by giving the score ranging in the parentheses after each test: • Forelimb placing test (0-12), consisting of whisker tactile placing (0-2); visual placing (forward, sideways) (0-4); tactile placing (dorsal, lateral) (0-4); and proprioceptive placing (0-2); • Hindlimb placing test (0-6), consisting of tactile placing (dorsal, lateral) (0-4); and proprioceptive placing (0-2). […]

[2] = system: rat cortical neurons (mixed cortical cultures); experiment: Oxygen/glucose deprivation (OGD) of rat cortical neurons, cell death by LDH release; assay type: cell-based, Wistar rat; conditions: all concentrations (0.1-50 μM) except 0.2 μM; added one hour after onset of OGD
Method: Mixed cortical cultures were prepared from E18 Wistar rat embryos (National Animal Center, Kuopio, Finland). The cortices were dissected and the tissue cut into small pieces. The cells were separated by fifteen minute incubation with DNase and papain. The cells were collected by centrifugation (1500 rpm, 5 min). The tissue was triturated with a pipette and the cells were placed on poly-L-lysine coated 48-well plates, 300,000 cells/cm2, in MEM (2 g/L glucose) supplemented with 2 mM glutamine, 0.1 μg/mL gentamicin, 10% heat-inactivated fetal bovine serum (FSB-HI) and 10% heat-inactivated horse serum (HS-HI). After 3-4 hours, the medium was changed to MEM (2 g/L glucose) and supplemented with 2 mM glutamine, 0.1 μg/mL gentamicin, 5% HS-HI. After three days in vitro, cells were transferred into medium containing MEM (2 g/L glucose) supplemented with glutamine, gentamicin and 5% each of FSB-HI and HS-HI sera. On day 6 in vitro, unwanted cell division was inhibited by adding cytosine arabinoside (10 μM final concentration) for 24 hours. […]
After 24 hours, possible cell debris was removed by centrifugation (13,000 rpm, 3 min.). […] The absorbance at 340 nm was measured immediately using a 3 min. kinetic measurement protocol in Multiskan ELISA reader (Labsystems, Finland). The change in absorbance/min was determined, which is directly proportional to the released LDH (=cell death).

[3] = Cerebrospinal fluid (CSF) levels after oral administration in humans; assay type: in vivo, human; conditions: 3 and 6 hours after oral administration, increasing doses
[4] = treatment from 1 h after occlusion, up to 28 days

With [O-][n+]1cccc(/C(Cl)=N/OC[C@H](O)CN2CCCCC2)c1 [arimoclomol, N-[2-hydroxy-3-(1-piperidinyl)propoxy]-pyridine-1-oxide-3-carboximidoyl chloride] the “Infarct Volume (%)” value ([1]; day 28 after permanent MCAO, percentage of intact contralateral hemispheric volume, mean ± S.E.M.) was 21.6 ± 3.6%, the “Body Swing Test, recovery compared to vehicle group” value [1, 4] was “superior to the vehicle group; also recorded: non-significant trend of enhanced recovery” and the “Forelimb Placing Test, recovery compared to vehicle group” value [1, 4] was “superior to the vehicle group”. The “Hindlimb Placing Test, recovery compared to vehicle group” value [1, 4] was “superior to the vehicle group”, the “cytoprotection against OGD as measured by LDH release” value [2] was “cytoprotective” and the “penetration of the human blood-brain barrier (CSF levels)” value [3] was “penetrates the human blood-brain barrier”.
